Results: US20110250184A1, “METHODS FOR DETERMINING EFFICACY OF A THERAPEUTIC REGIMEN AGAINST DELETERIOUS EFFECTS OF CYTOTOXIC AGENTS IN HUMAN” (priority 2008, published 2011)
Entries after “also recorded” stand apart in the source; their conditions may differ.

How the values were obtained:
[1] = tested on: apoptosis-specific signaling events; test: Signaling studies, apoptosis-specific signaling after radiation; assay type: cell-based; details: treatment prior to radiation exposure
Description: To analyze and investigate the efficacy of a cytotoxic protective drug, biological assays were developed that assisted in determination of the mechanism of action of these drugs at the intracellular level. In the case of ON 01210.Na, certain components of cellular and DNA damage-sensing, repair, and apoptosis pathways were studied in more detail.

[2] = tested on: bone marrow of irradiated mice; test: In vivo radiation protection assay, bone marrow colony forming units of irradiated mice; set-up: species or system C3H/HEJ mice; details: for Differential colony counts, GM / Differential colony counts, Granulocytes / Differential colony counts, Macrophages / Differential colony counts, Total CFU: 500 mg/kg sc -24 h and -15 min
Procedure: (§1) FIG. 4. ON 01210.Na protects the bone marrow of irradiated mice. A. Mice were injected with 500 mg/kg of ON 01210.Na formulated in 1% Polysorbate 80/K-phosphate buffer or vehicle alone by sc injections minus 24 hrs and minus 15 minutes before 5.5 Gy of whole body ionizing radiation treatment. Whole blood was collected on the indicted days and WBC counts were performed following RBC lysis. The data is plotted as the average of three mice per group +/−SEM (N:3×3=9 plates). B. Pictures of representative plates. […] C. White blood cell counts. Whole blood was collected on the indicted days and WBC counts were performed following RBC lysis. The data is plotted as the average of 3 mice per group±SEM (N=3).
Since survival of animals after radiation exposure depends largely on the protection of the hematopoietic system, the effect of ON 01210.Na treatment on hematopoietic cell survival was investigated using various schedules before radiation exposure. The radioprotection of hematopoietic cells by ON 01210.Na was studied in an in vivo assay using a sub lethal dose of radiation. C3H/HEJ mice were treated with ON 01210.Na following various schedules in order to determine the optimal dose and schedule of ON 01210.Na for maximum protection of the hematopoietic system in mice.
as §1, with “A.” for “FIG. 4. ON 01210.Na protects the bone marrow of irradiated mice. A.”, “group+/−SEM” for “group +/−SEM”, “(N=3). Lineage specific protection was studied by identifying and tabulating three lineages, granulocytes, macrophages and granulocyte-macrophages (GM).” for “(N=3).”
In order to determine the optimal schedule of ON 01210.Na treatment for maximum protection of the bone marrow, bone marrow protection of mice injected with a single dose of ON 01210.Na at minus 15 minutes or minus 4 hours was compared with mice injected with two doses described above. The most efficient protection of the bone marrow was found when the mice were injected at minus 24 hours and minus 15 minutes before radiation exposure. […] These experiments imply that a single injection just before exposure will protect and increase the recovery of bone marrow cells after radiation exposure.

[3] = tested on: HFL-1 (normal diploid lung fibroblasts) cells; test: Clonogenic assay, radioprotection of HFL-1 cells against ionizing radiation; assay type: cell-based, human
Description: FIG. 1. Protection of HFL-1 cells against Ionizing Radiation (IR) by ON 01210.Na. Following drug treatment and radiation exposure, cells were re-plated and the number of colonies from each plate was enumerated three weeks later. A. Relation of concentration of ON 01210.Na to number of surviving colonies. B. Stained clonogenic assay plates.
A clonogenic assay was used to measure radioprotection of ON 01210.Na on cultured human cells. Treatment of HFL-1 (normal diploid lung fibroblasts) cells with 2-20 μM of ON 01210.Na for 24 hours prior to cytotoxic levels of Ionizing Radiation (IR) (10 Gy) provided 3.3-4.7 fold protection in a dose-dependent manner (see FIG. 1A).HFL-1 cells, were treated with ON 01210.Na at final concentrations ranging from 2.0 to 20.0 μM. In a second experiment, cells were also treated with the drug for 24 h, but the drug was applied 4 h after irradiation.
Following drug treatment and radiation exposure, cells were re-plated and the number of colonies from each plate was enumerated three weeks later. A. Relation of concentration of ON 01210.Na to number of surviving colonies. B. Stained clonogenic assay plates.

[4] = tested on: p53, p21, bax, c-abl and p73; test: Protein levels in cells in response to radiation exposure; assay type: cell-based
Description: This reduction could be instrumental in decreased cell death and increased cell recovery in ON 01210.Na pretreated irradiated cells.

## O=C([O-])c1ccc(/C=C/S(=O)(=O)Cc2ccc(Cl)cc2)cc1.[Na+] [ON 01210.Na, E-4-Carboxystyryl-4-chlorobenzylsulfone sodium salt]
[1]
  level of apoptosis-specific signaling events: reduced the level of apoptosis-specific signaling events
[2]; 5.5 Gy IR, day 4
  Differential colony counts, GM: 8
  Differential colony counts, Granulocytes: 9
  Differential colony counts, Macrophages: 4
  Differential colony counts, Total CFU: 21
[2]; 5.5 Gy IR, day 7
  Differential colony counts, GM: 9
  Differential colony counts, Granulocytes: 13
  Differential colony counts, Macrophages: 2
  Differential colony counts, Total CFU: 24
[2]; 5.5 Gy IR, day 12
  Differential colony counts, GM: 16
  Differential colony counts, Granulocytes: 16
  Differential colony counts, Macrophages: 5
  Differential colony counts, Total CFU: 37
[2]; 5.5 Gy IR, day 18
  Differential colony counts, GM: 72
  Differential colony counts, Granulocytes: 58
  Differential colony counts, Macrophages: 16
  Differential colony counts, Total CFU: 146
[2]; No IR, day 4
  Differential colony counts, GM: 111
  Differential colony counts, Granulocytes: 27
  Differential colony counts, Macrophages: 9
  Differential colony counts, Total CFU: 147
[2]; No IR, day 7
  Differential colony counts, GM: 120
  Differential colony counts, Granulocytes: 18
  Differential colony counts, Macrophages: 5
  Differential colony counts, Total CFU: 143
[2]; No IR, day 12
  Differential colony counts, GM: 116
  Differential colony counts, Granulocytes: 64
  Differential colony counts, Macrophages: 14
  Differential colony counts, Total CFU: 194
[2]; No IR, day 18
  Differential colony counts, GM: 119
  Differential colony counts, Granulocytes: 39
  Differential colony counts, Macrophages: 39
  Differential colony counts, Total CFU: 197
[2]; 500 mg/kg sc -24 h and -15 min before 5.5 Gy whole body IR, sodium salt
  protection and recovery of the bone marrow: significantly increased the recovery of the bone marrow; also recorded: significantly protected
[2]; administration -15 min relative to IR exposure, day 4
  Percent Colony Forming Units: 9%
[2]; administration -15 min relative to IR exposure, day 7
  Percent Colony Forming Units: 13%
[2]; administration -15 min relative to IR exposure, day 12
  Percent Colony Forming Units: 17%
[2]; administration -15 min relative to IR exposure, day 18
  Percent Colony Forming Units: 80%
[2]; administration -4 h relative to IR exposure, day 4
  Percent Colony Forming Units: 6%
[2]; administration -4 h relative to IR exposure, day 7
  Percent Colony Forming Units: 10%
[2]; administration -4 h relative to IR exposure, day 12
  Percent Colony Forming Units: 12%
[2]; administration -4 h relative to IR exposure, day 18
  Percent Colony Forming Units: 51%
[2]; administration -24 h and -15 min relative to IR exposure, day 4
  Percent Colony Forming Units: 14%
[2]; administration -24 h and -15 min relative to IR exposure, day 7
  Percent Colony Forming Units: 16%
[2]; administration -24 h and -15 min relative to IR exposure, day 12
  Percent Colony Forming Units: 25%
[2]; administration -24 h and -15 min relative to IR exposure, day 18
  Percent Colony Forming Units: 100%
[2]; mice injected without radiation exposure
  macrophage colony number: slight increase
[2]; single injection 4 hours prior to radiation exposure, sodium salt
  recovery of bone marrow versus vehicle: did not show a significant advantage; also recorded: not significantly increased
[3]; 2-20 μM for 24 hours prior to 10 Gy IR, dose-dependent
  fold protection (surviving colonies): 3.3-4.7 fold
[3]; ON 01210.Na treated group after IR
  number of cells per colony: significant larger
[3]; human lung fibroblasts
  protection from radiation exposure (clonogenic survival): protected
[3]; treated four hours post irradiation exposure, 24 h
  protection when cells treated post irradiation: significant protection
[4]
  protein level of bax: significantly reduce
  protein level of c-abl: significantly reduce
  protein level of p21: significantly reduce
  protein level of p53: significantly reduce
  protein level of p73: significantly reduce
